Test results taken from patent US12617797B2, “Substituted pyrazolo [1,5-a]pyrimidines having multimodal activity against pain” (ESTEVE PHARMACEUTICALS, S.A., priority 2020, dated 2026).

Assays:
[1] = target: T1, Human σ1 receptor (Homo sapiens, UniProt Q99720); assay: Human σ1 receptor radioligand assay ([3H](+)-pentazocine binding, transfected HEK-293 membranes); details: binding to σ1 receptor expressed as Ki; + also covers inhibition between 1% and 50%; read-out: σ-1 binding
T1 construct: expressed in transfected cells; host or cells: HEK-293
Description: Human σ1 Receptor Radioligand Assay
Transfected HEK-293 membranes (7 μg) were incubated with 5 nM of [^3H](+)-pentazocine in assay buffer containing Tris-HCl 50 mM at pH 8. NBS (non-specific binding) was measured by adding 10 μM haloperidol. The binding of the test compound was measured at either one concentration (% inhibition at 1 or 10 μM) or five different concentrations to determine affinity values (Ki). Plates were incubated at 37° C. for 120 minutes. After the incubation period, the reaction mix was then transferred to MultiScreen HTS, FC plates (Millipore), filtered and plates were washed 3 times with ice-cold 10 mM Tris-HCL (pH7.4). Filters were dried and counted at approximately 40% efficiency in a MicroBeta scintillation counter (Perkin-Elmer) using EcoScint liquid scintillation cocktail.

[2] = target: Human α2δ-1 subunit of Cav2.2 calcium channel (Homo sapiens, UniProt P54289); assay: Human α2δ-1 subunit of Cav2.2 calcium channel assay ([3H]-gabapentin binding); details: binding to the α2δ-1 subunit of voltage-gated calcium channels expressed as Ki; + also covers inhibition between 1% and 50%
Description: Biological Activity Pharmacological Study Human α2δ-1 Subunit of Cav2.2 Calcium Channel Assay
Human α2δ-1 enriched membranes (2.5 μg) were incubated with 15 nM of radiolabeled [^3H]-Gabapentin in assay buffer containing Hepes-KOH 10 mM, pH 7.4. NSB (non specific binding) was measured by adding 10 μM pregabalin. The binding of the test compound was measured at either one concentration (% inhibition at 1 or 10 μM) or five different concentrations to determine affinity values (Ki). After 60 min incubation at 27° C., binding reaction was terminated by filtering through Multiscreen GF/C (Millipore) presoaked in 0.5% polyethyleneimine in Vacuum Manifold Station, followed by 3 washes with ice-cold filtration buffer containing 50 mM Tris-HCl, pH 7.4. Filter plates were dried at 60° C. for 1 h and 30 μL of scintillation cocktail were added to each well before radioactivity reading. Readings were performed in a Trilux 1450 Microbeta radioactive counter (Perkin Elmer).

Human α2δ-1 subunit of Cav2.2 calcium channel, sequence (P54289 25-1103): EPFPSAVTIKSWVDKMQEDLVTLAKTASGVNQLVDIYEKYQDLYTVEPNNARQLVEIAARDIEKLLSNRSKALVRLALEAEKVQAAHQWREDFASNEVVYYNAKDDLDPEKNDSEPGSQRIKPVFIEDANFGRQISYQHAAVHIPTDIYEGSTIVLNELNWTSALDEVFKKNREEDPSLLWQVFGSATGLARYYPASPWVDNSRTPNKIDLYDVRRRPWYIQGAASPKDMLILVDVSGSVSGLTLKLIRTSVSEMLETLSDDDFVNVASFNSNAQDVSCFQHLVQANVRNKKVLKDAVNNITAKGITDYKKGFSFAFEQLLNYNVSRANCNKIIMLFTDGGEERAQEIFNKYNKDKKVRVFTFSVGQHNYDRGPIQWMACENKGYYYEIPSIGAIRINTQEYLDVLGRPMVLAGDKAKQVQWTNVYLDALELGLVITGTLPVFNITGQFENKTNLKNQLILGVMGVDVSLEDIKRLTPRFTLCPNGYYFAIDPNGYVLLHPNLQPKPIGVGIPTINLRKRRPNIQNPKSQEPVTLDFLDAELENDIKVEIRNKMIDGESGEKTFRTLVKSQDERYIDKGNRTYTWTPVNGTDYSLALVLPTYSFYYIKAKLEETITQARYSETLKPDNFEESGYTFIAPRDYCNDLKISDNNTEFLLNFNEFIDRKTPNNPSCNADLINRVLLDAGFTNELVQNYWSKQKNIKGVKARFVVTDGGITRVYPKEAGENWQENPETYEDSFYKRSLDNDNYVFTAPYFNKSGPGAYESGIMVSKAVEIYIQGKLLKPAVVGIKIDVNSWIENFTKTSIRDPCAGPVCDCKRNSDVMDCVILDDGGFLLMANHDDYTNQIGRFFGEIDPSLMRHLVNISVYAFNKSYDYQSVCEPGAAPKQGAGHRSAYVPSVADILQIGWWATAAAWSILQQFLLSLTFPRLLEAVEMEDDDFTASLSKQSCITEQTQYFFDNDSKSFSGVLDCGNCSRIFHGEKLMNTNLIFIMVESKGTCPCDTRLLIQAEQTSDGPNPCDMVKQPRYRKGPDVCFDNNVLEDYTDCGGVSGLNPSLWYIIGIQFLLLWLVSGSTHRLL
T1 sequence (Q99720 whole entry): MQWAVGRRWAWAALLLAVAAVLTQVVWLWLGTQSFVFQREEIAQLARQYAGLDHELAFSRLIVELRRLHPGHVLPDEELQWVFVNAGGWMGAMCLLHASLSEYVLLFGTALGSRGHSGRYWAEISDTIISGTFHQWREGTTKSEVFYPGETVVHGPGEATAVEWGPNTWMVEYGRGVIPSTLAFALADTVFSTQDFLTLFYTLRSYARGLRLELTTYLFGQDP

Row | SMILES | Ki [1] [µM] | Ki [2] [µM]
1 | Clc1ccc(CN2CCCC(c3ccnc4c(CNCC5CCOCC5)c(Cl)nn34)C2)cc1 (stereo not shown) [Example 190, 1-(2-Chloro-7-(1-(4-chlorobenzyl)piperidin-3-yl)pyrazolo[1,5-a]pyrimidin-3-yl)-N-((tetrahydro-2H-pyran-4-yl)methyl)methanamine] | < 0.5 | < 0.5
2 | Cc1cnc2c(-c3ccncc3)cnn2c1C1CCCN(CCc2ccccc2)C1 (stereo not shown) [Example 73, 6-Methyl-7-(1-phenethylpiperidin-3-yl)-3-(pyridin-4-yl)pyrazolo[1,5-a]pyrimidine] | < 0.5 | > 5
3 | c1ccc(CN2CCCC(c3ccnc4cc(-c5ccncc5)nn34)C2)cc1 (stereo not shown) [Example 16, 7-(1-Benzylpiperidin-3-yl)-2-(pyridin-4-yl)pyrazolo[1,5-a]pyrimidine] | > 1 | 0.5 to 5
4 | COc1cncc(-c2cc3nccc(C4CCCN(Cc5ccccc5)C4)n3n2)c1 (stereo not shown) [Example 31, 7-(1-Benzylpiperidin-3-yl)-2-(5-methoxypyridin-3-yl)pyrazolo[1,5-a]pyrimidine] | > 1 | 0.5 to 5
5 | Cc1nn2c(C3CCCN(Cc4ccc(Cl)cc4)C3)ccnc2c1-c1ccnc(CO)c1 (stereo not shown) [Example 134, (4-(7-(1-(4-Chlorobenzyl)piperidin-3-yl)-2-methylpyrazolo[1,5-a]pyrimidin-3-yl)pyridin-2-yl)methanol] | 0.5 to 1 | > 5
6 | Cc1cc2nccc(C3CCCN(Cc4cccc(O)c4)C3)n2n1 (stereo not shown) [Example 68, 3-((3-(2-Methylpyrazolo[1,5-a]pyrimidin-7-yl)piperidin-1-yl)methyl)phenol] | > 1 | > 5
7 | CC(C)CCN1CCCC(c2ccnc3c(CNCC4CCOCC4)c(Cl)nn23)C1 (stereo not shown) [Example 191, 1-(2-Chloro-7-(1-isopentylpiperidin-3-yl)pyrazolo[1,5-a]pyrimidin-3-yl)-N-((tetrahydro-2H-pyran-4-yl)methyl)methanamine] | < 0.5 | > 5
8 | Cc1nnc(CNCc2c(C)nn3c(C4CCCN(Cc5ccc(Cl)cc5)C4)ccnc23)o1 (stereo not shown) [Example 152, 1-(7-(1-(4-Chlorobenzyl)piperidin-3-yl)-2-methylpyrazolo[1,5-a]pyrimidin-3-yl)-N-((5-methyl-1,3,4-oxadiazol-2-yl)methyl)methanamine] | 0.5 to 1 | > 5
9 | Clc1ccc(CN2CCCC(c3ccnc4c(CNCC5CCOCC5)c(C5CC5)nn34)C2)cc1 (stereo not shown) [Example 188, 1-(7-(1-(4-Chlorobenzyl)piperidin-3-yl)-2-cyclopropylpyrazolo[1,5-a]pyrimidin-3-yl)-N-((tetrahydro-2H-pyran-4-yl)methyl)methanamine] | < 0.5 | < 0.5
10 | COc1cnccc1-c1cc2nccc(C3CCCN(Cc4ccccc4)C3)n2n1 (stereo not shown) [Example 33, 7-(1-Benzylpiperidin-3-yl)-2-(3-methoxypyridin-4-yl)pyrazolo[1,5-a]pyrimidine] | > 1 | 0.5 to 5
11 | Cc1nc(-c2cccc(-c3c(C)nn4c(C5CCCN(Cc6ccccc6)C5)ccnc34)c2)no1 (stereo not shown) [Example 55, 3-(3-(7-(1-Benzylpiperidin-3-yl)-2-methylpyrazolo[1,5-a]pyrimidin-3-yl)phenyl)-5-methyl-1,2,4-oxadiazole] | > 1 | 0.5 to 5
12 | Cc1nn2c(C3CCCN(CCC(C)C)C3)ccnc2c1-c1ccncc1 (stereo not shown) [Example 127, 7-(1-Isopentylpiperidin-3-yl)-2-methyl-3-(pyridin-4-yl)pyrazolo[1,5-a]pyrimidine] | < 0.5 | > 5
13 | Cc1nn2c(C3CCCN(Cc4ccc(Cl)cc4)C3)ccnc2c1CN1CCSCC1 (stereo not shown) [Example 167, 4-((7-(1-(4-Chlorobenzyl)piperidin-3-yl)-2-methylpyrazolo[1,5-a]pyrimidin-3-yl)methyl)thiomorpholine] | < 0.5 | 0.5 to 5
14 | Cc1nn2c(C3CCCN(Cc4ccc(Cl)cc4)C3)ccnc2c1CN1CCCCC1 (stereo not shown) [Example 169, 7-(1-(4-Chlorobenzyl)piperidin-3-yl)-2-methyl-3-(piperidin-1-ylmethyl)pyrazolo[1,5-a]pyrimidine] | < 0.5 | 0.5 to 5
15 | Cc1nn2c(C3CCCN(Cc4ccc(Cl)cc4)C3)ccnc2c1-c1cccc(C(=O)N(C)C)c1 (stereo not shown) [Example 128, 3-(7-(1-(4-Chlorobenzyl)piperidin-3-yl)-2-methylpyrazolo[1,5-a]pyrimidin-3-yl)-N,N-dimethylbenzamide] | > 1 | > 5

Other lines, results leading:

Row | Ki [1] [µM] | Ki [2] [µM] | SMILES
16 | < 0.5 | > 5 | Cc1nn2c(C3CCCN(Cc4ccc(Cl)cc4)C3)ccnc2c1CN1CCC(C#N)CC1 (stereo not shown) [Example 172, 1-((7-(1-(4-Chlorobenzyl)piperidin-3-yl)-2-methylpyrazolo[1,5-a]pyrimidin-3-yl)methyl)piperidine-4-carbonitrile]
17 | 0.5 to 1 | > 5 | Cc1nn2c(C3CCCN(Cc4ccc(Cl)cc4)C3)ccnc2c1CNCC(F)(F)F (stereo not shown) [Example 156, N-((7-(1-(4-Chlorobenzyl)piperidin-3-yl)-2-methylpyrazolo[1,5-a]pyrimidin-3-yl)methyl)-2,2,2-trifluoroethan-1-amine]
18 | 0.5 to 1 | 0.5 to 5 | Cc1nn2c(C3CCCN(Cc4ccc(Cl)cc4)C3)ccnc2c1CN1C[C@@H](C)O[C@@H](C)C1 (stereo partly drawn) [Example 164, (2S,6R)-4-((7-(1-(4-Chlorobenzyl)piperidin-3-yl)-2-methylpyrazolo[1,5-a]pyrimidin-3-yl)methyl)-2,6-dimethylmorpholine]
19 | < 0.5 | 0.5 to 5 | Cc1nn2c(C3CCCN(Cc4ccc(Cl)cc4)C3)ccnc2c1CN(C)CC1CCOCC1 (stereo not shown) [Example 231, 1-(7-(1-(4-Chlorobenzyl)piperidin-3-yl)-2-methylpyrazolo[1,5-a]pyrimidin-3-yl)-N-methyl-N-((tetrahydro-2H-pyran-4-yl)methyl)methanamine]
20 | > 1 | 0.5 to 5 | COc1cc(-c2cnn3c(C4CCCN(Cc5ccccc5)C4)ccnc23)ccn1 (stereo not shown) [Example 38, 7-(1-Benzylpiperidin-3-yl)-3-(2-methoxypyridin-4-yl)pyrazolo[1,5-a]pyrimidine]
21 | < 0.5 | 0.5 to 5 | CNCc1c(C)nn2c([C@H]3CCCN(Cc4ccc(Cl)cc4)C3)ccnc12 [Example 213, (S)-1-(7-(1-(4-chlorobenzyl)piperidin-3-yl)-2-methylpyrazolo[1,5-a]pyrimidin-3-yl)-N-methylmethanamine]
22 | < 0.5 | > 5 | Cc1nn2c(C3CCCN(Cc4ccc(Cl)cc4)C3)ccnc2c1CN(CC1CCOCC1)C(C)C (stereo not shown) [Example 232, N-((7-(1-(4-Chlorobenzyl)piperidin-3-yl)-2-methylpyrazolo[1,5-a]pyrimidin-3-yl)methyl)-N-((tetrahydro-2H-pyran-4-yl)methyl)propan-2-amine]
23 | < 0.5 | 0.5 to 5 | Cc1nn2c(C3CCCN(Cc4ccc(Cl)cc4)C3)ccnc2c1CNCCO (stereo not shown) [Example 158, 2-(((7-(1-(4-Chlorobenzyl)piperidin-3-yl)-2-methylpyrazolo[1,5-a]pyrimidin-3-yl)methyl)amino)ethan-1-ol]
24 | > 1 | 0.5 to 5 | c1ccc(CN2CCCC(c3ccnc4c(-c5cccnc5)cnn34)C2)cc1 (stereo not shown) [Example 37, 7-(1-Benzylpiperidin-3-yl)-3-(pyridin-3-yl)pyrazolo[1,5-a]pyrimidine]
25 | > 1 | 0.5 to 5 | CCc1cc(-c2c(C)nn3c(C4CCCN(Cc5ccccc5)C4)ccnc23)ccn1 (stereo not shown) [Example 54, 7-(1-Benzylpiperidin-3-yl)-3-(2-ethylpyridin-4-yl)-2-methylpyrazolo[1,5-a]pyrimidine]
26 | < 0.5 | 0.5 to 5 | Cc1nn2c(C3CCCN(Cc4ccccc4)C3)ccnc2c1CN(C)CC1CC1 (stereo not shown) [Example 234, 1-(7-(1-Benzylpiperidin-3-yl)-2-methylpyrazolo[1,5-a]pyrimidin-3-yl)-N-(cyclopropylmethyl)-N-methylmethanamine]
27 | > 1 | 0.5 to 5 | Cc1nn2c([C@H]3CCCN(Cc4ccccc4)C3)ccnc2c1CNC[C@@H]1CCN(C)C(=O)C1 [Example 243, (R)-4-((((7-((S)-1-Benzylpiperidin-3-yl)-2-methylpyrazolo[1,5-a]pyrimidin-3-yl)methyl)amino)methyl)-1-methylpiperidin-2-one]
28 | < 0.5 | 0.5 to 5 | Cc1nn2c(C3CCCN(Cc4ccc(Cl)cc4)C3)ccnc2c1CN(C)Cc1ccc(CO)cc1 (stereo not shown) [Example 230, (4-((((7-(1-(4-Chlorobenzyl)piperidin-3-yl)-2-methylpyrazolo[1,5-a]pyrimidin-3-yl)methyl)(methyl)amino)methyl)phenyl)methanol]
29 | < 0.5 | 0.5 to 5 | Cc1nn2c([C@H]3CCCN(Cc4ccc(Cl)cc4)C3)ccnc2c1CN[C@H](C)C1CCOCC1 [Example 226, (R)—N-((7-((S)-1-(4-chlorobenzyl)piperidin-3-yl)-2-methylpyrazolo[1,5-a]pyrimidin-3-yl)methyl)-1-(tetrahydro-2H-pyran-4-yl)ethan-1-amine]
